Reference: EP0289450A1, “15-Alkyl-19-thio-androst-4-en-3,17 diones, process for their preparation and pharmaceutical compositions containing them” (SCHERING AKTIENGESELLSCHAFT, priority 1987, dated 1988)

Target: T1, Aromatase (Rattus norvegicus, UniProt P22443)
T1 construct: Infantile weibliche Ratten reagieren auf PMSG-Behandlung mit einheitlich erhöhter Steroidsynthese; from tissue; host or cells: living infantile female rats (whole animal); estradiol measured in serum by radioimmunoassay
T1 sequence (P22443 1-508): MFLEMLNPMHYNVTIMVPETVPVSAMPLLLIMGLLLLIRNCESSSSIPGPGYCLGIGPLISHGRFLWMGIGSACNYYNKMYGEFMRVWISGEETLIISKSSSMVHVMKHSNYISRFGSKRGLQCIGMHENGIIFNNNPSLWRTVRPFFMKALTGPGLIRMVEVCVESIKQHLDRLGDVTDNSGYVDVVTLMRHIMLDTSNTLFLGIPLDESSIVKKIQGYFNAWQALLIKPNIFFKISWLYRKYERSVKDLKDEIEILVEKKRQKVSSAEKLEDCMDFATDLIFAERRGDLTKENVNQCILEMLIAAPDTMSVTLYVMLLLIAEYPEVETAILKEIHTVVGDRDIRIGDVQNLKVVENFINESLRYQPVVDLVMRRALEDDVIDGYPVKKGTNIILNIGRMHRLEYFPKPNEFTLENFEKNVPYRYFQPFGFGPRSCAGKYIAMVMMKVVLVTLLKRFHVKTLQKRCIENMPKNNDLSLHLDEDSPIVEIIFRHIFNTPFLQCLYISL
Experiment: PMSG (Pregnant Mare's Serum Gonadotropin) test: effect on PMSG-stimulated serum estradiol after oral application
Assay type: in vivo, Ratte
Details: 10 mg/Tier 2 x p.o.; for Östradiol-Konzentration in: peripheral serum of PMSG-pretreated infantile female rats, 24 h after last PMSG application, mean ± standard deviation, n = 10; for relative Wirkstärke: relative potency versus compound A (= 1,0), by regression and covariance analysis, rat
Source text: So konnte zum Beispiel im sogenannten PMSG (Pregnant Mare's Serum Gonadotropin)-Test [J. Steroid. Biochem. 7, (1976) 787] gezeigt werden, daß im Vergleich zu dem bekannten Aromatasehemmer 19-Methylthio-4-androsten-3,17-dion (A) die erfindungsgemäßen Verbindungen, wie zum Beispiel 15α-Ethyl-19-methylthio-4-androsten-3,17-dion (B), bei oraler Applikation eine stärkere Wirkung besitzen.
Infantile weibliche Ratten reagieren auf PMSG-Behandlung mit einheitlich erhöhter Steroidsynthese. Die Aromataseaktivität kann durch die Beeinflussung der PMSG-stimulierten Östrogenbildung gemessen werden.
Im PMSG-Test werden 21 Tage alte weibliche Ratten alle 2 Tage insgesamt 7 mal mit je 100 I.U. PMSG subkutan vorbehandelt. 1 Stunde vor und 8 Stunden nach der letzten PMSG-Applikation (d₁₂) erhalten die Tiere die Testsubstanz durch orale Applikation.
Die Kontrolltiere erhalten nur das Vehikel. 24 Stunden nach der letzten PMSG-Applikation werden die Tiere getötet. Im Serum wird Östradiol radioimmunologisch geprüft. Für jede Gruppe von 10 Tieren wird der Mittelwert der Östradiolkonzentration in nMol/l mit der Standardabweichung errechnet. Die Signifikanzen der Unterschiede zur Kontrollgruppe werden durch die Varianzanalyse geprüft.
Zur Ermittlung der relativen Wirkungsstärke der zu testenden Substanz im Vergleich zu der Vergleichssubstanz wird die Regressions- und Kovarianzanalyse durchgeführt. Ferner wird die prozentuale Hemmung gegen die PMSG-Kontrolle berechnet.

| SMILES | Östradiol-Konzentration in | relative Wirkstärke |
| --- | --- | --- |
| CSC[C@]12CCC(=O)C=C1CC[C@@H]1[C@@H]2CC[C@]2(C)C(=O)CC[C@@H]12 [A, 19-Methylthio-4-androsten-3,17-dion] | 5,50 ± 0,43 nMol/l | 1,0 |
| CC[C@H]1CC(=O)[C@@]2(C)CC[C@H]3[C@@H](CCC4=CC(=O)CC[C@@]43CSC)[C@H]12 [B, 15α-Ethyl-19-methylthio-4-androsten-3,17-dion] | 4,05 ± 0,36 nMol/l | 3,2 |
